Source: the supplement of paper PMC10307832

Key:
Experiment in all cases: relative viability (nuclei count vs DMSO), 5 days (fraction); higher = more cells survive
[1] = compound: C1=CC2=C(C=CC(=C2)C=C3C(=O)NC(=NCC4=CC=CS4)S3)N=C1 [RO-3306] + CC(=O)c1c(C)c2cnc(Nc3ccc(N4CCNCC4)cn3)nc2n(C2CCCC2)c1=O [Palbociclib] (partner 0.5 µM)
In short: (§1)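 Lung cancer cell lines were seeded in 1536-well plates and dosed by pin tool the next day, with either a single drug or a fixed anchor-drug dose combined with five library-drug doses (not always all listed) spaced in √10 steps. Five days later, one step fixed the cells and stained their nuclei (final 0.05% Triton X-100, 1% formaldehyde, 1 ug/ml Hoechst), and nuclei were counted on 4× images. Relative viability is the nuclei count in treated wells divided by the count in vehicle wells, and each value is the median of duplicate plates.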

[2] = compound: O=S(=O)(c1ccccc1)N(CC(F)(F)F)c1ccc(C(O)(C(F)(F)F)C(F)(F)F)cc1 + NC(=O)Nc1cc(-c2cccc(F)c2)sc1C(=O)N[C@H]1CCCNC1 [AZD7762] (partner 0.2 µM)
In short: as §1

[3] = compound: O=S(=O)(c1ccccc1)N(CC(F)(F)F)c1ccc(C(O)(C(F)(F)F)C(F)(F)F)cc1 + CC1(C)CCC(c2ccc(Cl)cc2)=C(CN2CCN(c3ccc(C(=O)NS(=O)(=O)c4ccc(N[C@H](CCN5CCOCC5)CSc5ccccc5)c(S(=O)(=O)C(F)(F)F)c4)cc3)CC2)C1 [Navitoclax] (partner 0.5 µM)
In short: as §1

[4] = compound: O=S(=O)(c1ccccc1)N(CC(F)(F)F)c1ccc(C(O)(C(F)(F)F)C(F)(F)F)cc1 + N=C(N)NC(=N)NCCc1ccccc1 [Phenformin] (partner 250 µM)
In short: as §1

[5] = compound: O=S(=O)(c1ccccc1)N(CC(F)(F)F)c1ccc(C(O)(C(F)(F)F)C(F)(F)F)cc1 + CC(=O)c1c(C)c2cnc(Nc3ccc(N4CCNCC4)cn3)nc2n(C2CCCC2)c1=O [Palbociclib] (partner 0.5 µM)
In short: as §1

[6] = compound: O=S(=O)(c1ccccc1)N(CC(F)(F)F)c1ccc(C(O)(C(F)(F)F)C(F)(F)F)cc1 + C[C@]1(O)C[C@@H](c2nc(-c3ccc4ccc(-c5ccccc5)nc4c3)c3c(N)nccn32)C1 [Linsitinib] (partner 1 µM)
In short: as §1

Cell Line	relative viability ([1]; first compound 0.01 µM)	relative viability ([1]; first compound 0.03162 µM)	relative viability ([1]; first compound 0.1 µM)	relative viability ([1]; first compound 0.3162 µM)	relative viability ([1]; first compound 1 µM)	relative viability ([2]; first compound 0.8 µM)	relative viability ([2]; first compound 2.53 µM)	relative viability ([2]; first compound 8 µM)	relative viability ([3]; first compound 0.8 µM)	relative viability ([3]; first compound 2.53 µM)	relative viability ([3]; first compound 8 µM)	relative viability ([4]; first compound 0.8 µM)	relative viability ([4]; first compound 2.53 µM)	relative viability ([4]; first compound 8 µM)	relative viability ([5]; first compound 0.8 µM)	relative viability ([5]; first compound 2.53 µM)	relative viability ([5]; first compound 8 µM)	relative viability ([6]; first compound 0.8 µM)	relative viability ([6]; first compound 2.53 µM)	relative viability ([6]; first compound 8 µM)
201T	0.31	0.342	0.325	0.36	0.367	0.797	0.617	0.637	1.18	1.18	1.22	0.451	0.41	0.503	0.365	0.354	0.371	0.996	0.941	1.04
A549									1.34	1.12	0.97	0.17	0.159	0.186				0.697	0.585	0.603
A-427	0.502	0.513	0.545	0.57	0.516	0.879	0.734	0.695	1.01	0.886	1.01	0.286	0.254	0.326	0.449	0.454	0.476	1.04	1.03	1.12
ABC-1	0.869	0.406	0.66	0.799	0.458	0.709	1.64	1.2				0.238	0.246	0.335		0.656	0.714	0.85	0.581	0.485
BEN	0.49	0.438	0.458	0.473	0.476	0.724	0.717	0.689	0.0593	0.0841	0.0468	0.262	0.249	0.283	0.506	0.504	0.454	1.09	0.858	0.82
CAL-12T	0.67	0.396	0.385	0.388	0.475	0.482	0.566	0.522	1.18	1.35	0.832	0.512	0.471	0.464	0.318	0.33	0.412	0.719	0.499	0.542
COR-L23	0.286	0.252	0.293	0.297	0.257				1.14	1.03	0.913	0.452	0.451	0.427	0.332	0.269	0.285	1.12	0.971	0.748
COR-L 105	0.392	0.408	0.412	0.404	0.385				0.691	0.668	0.823	0.455	0.422	0.492	0.328	0.411	0.378	0.896	0.758	0.96
Calu-6									0.796	0.823	0.647							0.908	0.826	0.926
ChaGo-K-1	1.04	0.854	0.911	0.871	0.578	0.952	0.888	0.791	0.978	1.02	1.59	0.517	0.52	0.474	1	0.895	0.877			
EBC-1									0.447	0.402	0.356							0.911	0.47	0.695
EKVX	0.346	0.37	0.332	0.447	0.393	0.664	0.708	0.503	0.939	0.918	0.868	0.226	0.199	0.228	0.401	0.341	0.324	0.897	0.946	0.931
EMC-BAC-2	0.501	0.461	0.514	0.516	0.494	0.486	1.09	1.05	1.25	1.21	1.13	0.701	0.493	0.557	0.525	0.473	0.5	0.902	0.846	0.796
EPLC-272H	0.254		0.342	0.304	0.302	0.226	0.203	0.203	1.24	1.08	0.795	0.273	0.304	0.269	0.357	0.286	0.261	1.12	1.32	1.11
H3255	0.299	0.373	0.294	0.305	0.321	0.787	0.666	0.76	0.537	0.64	0.503	0.382	0.373	0.393	0.319	0.313	0.28	0.962	0.867	0.832
HARA	0.207		0.265	0.24	0.311	0.437		0.318	1.21	1.14	0.948	0.438	0.357	0.304	0.246	0.244	0.27	0.901	0.847	0.776
HCC-15	0.787	0.606	0.677	0.669	0.742	1.18	1.17	1.16	0.639	0.593	0.619	0.469	0.405	0.422	0.703	0.567	0.642	0.798	0.758	0.812
IA-LM									0.765	0.696	0.899							0.656	0.34	0.397
LCLC-103H	0.472	0.462	0.514	0.492	0.486	0.841	0.826	0.948				0.367	0.297	0.318	0.503	0.523	0.488	1.06	1.17	0.936
NCI-H358	0.163	0.106	0.126	0.116	0.112	0.385	0.369	0.371				0.265	0.236	0.261		0.129	0.116	0.598	0.521	0.578

Cell Line	relative viability ([1]; first compound 0.01 µM)	relative viability ([1]; first compound 0.03162 µM)	relative viability ([1]; first compound 0.1 µM)	relative viability ([1]; first compound 0.3162 µM)	relative viability ([1]; first compound 1 µM)	relative viability ([2]; first compound 0.8 µM)	relative viability ([2]; first compound 2.53 µM)	relative viability ([2]; first compound 8 µM)	relative viability ([3]; first compound 0.8 µM)	relative viability ([3]; first compound 2.53 µM)	relative viability ([3]; first compound 8 µM)	relative viability ([4]; first compound 0.8 µM)	relative viability ([4]; first compound 2.53 µM)	relative viability ([4]; first compound 8 µM)	relative viability ([5]; first compound 0.8 µM)	relative viability ([5]; first compound 2.53 µM)	relative viability ([5]; first compound 8 µM)	relative viability ([6]; first compound 0.8 µM)	relative viability ([6]; first compound 2.53 µM)	relative viability ([6]; first compound 8 µM)
NCI-H520	0.254	0.224	0.235	0.261	0.267				0.943	1.3	1.38	0.825	0.568	0.708	0.231	0.254	0.236	1.09	1.23	1.25
NCI-H522	1.2	0.965	1.01	1.02	1.04	1.13	0.824	0.859				0.721	0.736	0.727	1.01	1.14	0.913			
NCI-H596						1.04	0.946	0.933	1.02	0.904	0.826	0.805	0.717	0.667				1.17	0.838	0.968
NCI-H650	0.32	0.325	0.332	0.328	0.293	0.814	1.22	0.996				0.396	0.465	0.509	0.322	0.329	0.27	0.739	0.761	0.938
NCI-H661	0.421	0.45	0.394	0.386	0.383							0.272	0.333	0.3	0.426	0.386	0.396	0.688	0.515	0.561
NCI-H1299									1.06	1	0.983							1.11	0.954	0.782
NCI-H1563												0.676	0.637	0.675				1.2	1.17	1.06
NCI-H1623												0.6	0.559	0.57						
NCI-H1648	0.277		0.284	0.246	0.224	0.694	0.505	0.707							0.258	0.274	0.29			
NCI-H1650	0.423	0.246	0.285	0.321	0.274				1.39	1.07	1.06	0.347	0.366	0.384	0.308	0.276	0.367			
NCI-H1703						0.132	0.119	0.132	0.926	0.634	0.7							0.675	0.667	0.805
NCI-H2009	0.216	0.203	0.18	0.25	0.203				0.965	1	0.938	0.47	0.439	0.419	0.174	0.238	0.223	1.15	1.01	1.03
NCI-H2023	0.389	0.376	0.276	0.443	0.251				1.07	0.888	0.845	0.472	0.369	0.311	0.335	0.328	0.27	0.659	0.564	0.464
NCI-H2170	0.416	0.398	0.372	0.433	0.378	0.994	0.817	0.961	0.715	0.681	0.547	0.379	0.348	0.344	0.433	0.353	0.356			
NCI-H2228	0.753	0.404	0.622	0.771	0.433				0.839	0.89	0.713	0.319	0.286	0.293	0.989	0.639	0.722	0.615	0.727	0.391
NCI-H2342	0.515	0.512	0.494	0.498	0.527	0.527	0.559	0.477				0.606	0.599	0.48	0.592	0.545	0.502			
SK-LU-1	0.365	0.366	0.382	0.336	0.355				1.18	0.865	0.56	0.546	0.489	0.526	0.358	0.423	0.376	1.09	0.97	0.881
SK-MES-1	0.355	0.305	0.352	0.289	0.272				1.42	1.33	1.21	0.779	0.745	0.65	0.351	0.354	0.277	1.15	1.17	0.972
SW 900	0.61	0.505	0.539	0.542	0.51	0.609	0.53	0.709				0.649	0.34	0.437	0.409	0.421	0.5			
SW 1573	0.445	0.399	0.377	0.316	0.369				1.26	0.874	0.641	0.47	0.37	0.401	0.449	0.323	0.356	0.829	0.762	0.624
